This assay deals with GMPPNP-loaded H-Ras or GTP-loaded K-Ras. Put plainly: Fluorescence polarization competition assay with TAMRA-labeled probe R4007. It is filed as binding, human. The conditions noted are these: 120 nM Ras, 30 nM probe R4007, 60 minutes at room temperature; read-out: Probe displacement (nM IC50). In outline:
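120 nM GMPPNP-loaded H-Ras or GTP-loaded K-Ras was preincubated with 30 nM TAMRA-labeled R4007 probe for 20 min at room temperature in Tris pH 7.5 buffer with MgCl2, EDTA and Triton X-100. Serially diluted competitor was then added for 60 min. Polarization was read at 535/595 nm, with Ki from a one-site Ki fit and IC50 from probe displacement.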
In general terms: In fluorescence polarisation assays a small probe gives low polarisation when free and higher when bound to something large.

*1 amine or outer side, *2 acyl side, *3 side chain or, on linkers, in order; H or OH if unused. Bridges are numbered along the chain shown (N, C = ends). [ ]: non-standard residue; d: D form. Trp(7-aza) = N[C@@H](Cc1c[nH]c2ncccc12)C(=O)O; NMePhe(4-F) = CN[C@@H](Cc1ccc(F)cc1)C(=O)O; Alexa Fluor 594 = N-terminal label (ALF); mXylylene = c1cc(C[*:1])cc(C[*:2])c1; Phg = N[C@H](C(=O)O)c1ccccc1; Nva = CCC[C@H](N)C(=O)O

On to `CCC[C@H](NC(C)=O)C(=O)N[C@H]1CSCc2cccc(c2)CSC[C@@H](C(N)=O)NC(=O)CN(C)C(=O)[C@H](Cc2ccc(F)cc2)N(C)C(=O)[C@H](Cc2ccc(O)cc2)NC(=O)[C@H](Cc2c[nH]c3ncccc23)NC(=O)[C@H](C2CCCCC2)NC(=O)[C@H](C)N(C)C(=O)[C@H](Cc2c[nH]cn2)NC(=O)[C@H](CCCCN)NC(=O)[C@H](C(C)(C)C)NC(=O)[C@H](Cc2ccc(O)cc2)NC1=O` (relative stereo) [Compound R4149, ACE-NVA-CYS*-TYR-TBG-LYS-HIS-NMA-CHG-7AW-TYR-MFF-SAR-CYS*-NH2], for which the IC50 is 6260 nM.

Consider `CCC[C@H](NC(C)=O)C(=O)N[C@H]1CSCc2cccc(c2)CSC[C@@H](C(N)=O)NC(=O)CN(C)C(=O)[C@H](Cc2ccc(F)cc2)N(C)C(=O)[C@H](Cc2ccc(O)cc2)NC(=O)[C@H](Cc2c[nH]c3ncccc23)NC(=O)[C@H](c2ccccc2)NC(=O)[C@H](CO)N(C)C(=O)[C@H](Cc2c[nH]cn2)NC(=O)[C@H](CCCCN)NC(=O)[C@H](C(C)(C)C)NC(=O)[C@H](Cc2ccc(O)cc2)NC1=O` (relative stereo) [Compound R4132, ACE-NVA-CYS*-TYR-TBG-LYS-HIS-NMS-PHG-SA7AW-TYR-MFF-R-CYS*-NH2], for which the 50% inhibitory concentration (IC50) turned out to be 281 nM.

For `CCC[C@H](NC(C)=O)C(=O)N[C@H]1CSCc2cccc(c2)CSC[C@@H](C(=O)NCC(=O)NCC(=O)NCC(=O)N[C@@H](CS)C(=O)N[C@H](C(=O)N[C@H](C(=O)N[C@@H](CCSC)C(=O)O)[C@@H](C)CC)C(C)C)NC(=O)CN(C)C(=O)[C@H](C)N(C)C(=O)[C@H](Cc2ccc(O)cc2)NC(=O)[C@H](Cc2c[nH]c3ncccc23)NC(=O)[C@H](C)NC(=O)[C@H](C)N(C)C(=O)[C@H](Cc2c[nH]cn2)NC(=O)[C@H](CCCCN)NC(=O)[C@H](C(C)(C)C)NC(=O)[C@H](Cc2ccc(O)cc2)NC1=O` (relative stereo) [Compound R4143, ACE-NVA-CYS*-TYR-TBG-LYS-HIS-NMA-ALA-7AW-TYR-NMA-SAR-CYS*-GLY-GLY-GLY-CYS-VAL-ILE-MET], the IC50 worked out at 1640 nM.

Take `C[C@H]1C(=O)N[C@@H](c2ccccc2)C(=O)N[C@@H](Cc2c[nH]c3ncccc23)C(=O)N[C@@H](Cc2ccc(O)cc2)C(=O)N(C)[C@@H](Cc2ccc(F)cc2)C(=O)N(C)CC(=O)NCCOCCOCCC(=O)N[C@@H](Cc2ccc(O)cc2)C(=O)N[C@@H](C(C)(C)C)C(=O)N[C@@H](CCCCN)C(=O)N[C@@H](Cc2c[nH]cn2)C(=O)N1C` (relative stereo) [Compound R4124, PEG2PA*-TYR-TBG-LYS-HIS-NMA-PHG-7AW-TYR-MFF-SAR*]: the IC50 was found to be 88.4 nM.

On to `CCC[C@H](NC(C)=O)C(=O)N[C@H]1CSCc2cccc(c2)CSC[C@@H](C(N)=O)NC(=O)[C@H](C)N(C)C(=O)[C@H](Cc2ccc(F)cc2)N(C)C(=O)[C@H](Cc2ccc(O)cc2)NC(=O)[C@H](Cc2c[nH]c3ncccc23)NC(=O)[C@H](c2ccccc2)NC(=O)[C@H](C)N(C)C(=O)[C@H](Cc2c[nH]cn2)NC(=O)[C@H](CCCCN)NC(=O)[C@H](C(C)(C)C)NC(=O)[C@H](Cc2ccc(O)cc2)NC1=O` (relative stereo) [Compound R4101, ACE-NVA-CYS*-TYR-TBG-LYS-HIS-NMA-PHG-7AW-TYR-MFF-NMA-CYS*-NH2], for which the IC50 stood at 1.45 nM.

Regarding “ALF-NVA-CYS*-TYR-NVA-PHG-MFF-THR-PRO-7AW-CYS*-7AW-GLU-GLU-NH2 ({Alexa Fluor 594}-[Nva]CY[Nva][Phg][NMePhe(4-F)]TP[Trp(7-aza)]C[Trp(7-aza)]EE-NH2; linker 2-10 via mXylylene) [Compound R4154, cyclized by a m-xylylene thioether bridge]”, the IC50 turned out to be 37400 nM.

Take `CCC[C@H](N)C(=O)N[C@H]1CSCc2cccc(c2)CSC[C@@H](C(N)=O)NC(=O)CN(C)C(=O)[C@H](Cc2ccc(F)cc2)N(C)C(=O)[C@H](Cc2ccc(O)cc2)NC(=O)[C@H](Cc2c[nH]c3ncccc23)NC(=O)[C@H](c2ccccc2)NC(=O)[C@H](C)N(C)C(=O)[C@H](Cc2cnc[nH]2)NC(=O)[C@H](CCCCN)NC(=O)[C@H](C(C)(C)C)NC(=O)[C@H](Cc2ccc(O)cc2)NC1=O` (relative stereo) [Compound R4002, NVA-CYS*-TYR-TBG-LYS-HIS-NMA-PHG-7AW-TYR-MFF-SAR-CYS*-NH2]: the half-inhibitory concentration (IC50) came to 7.92 nM.

On to `CCC[C@H](NC(C)=O)C(=O)N[C@H]1CSCc2cccc(c2)CSC[C@@H](C(N)=O)NC(=O)CN(C)C(=O)[C@H](Cc2ccc(F)cc2)N(C)C(=O)[C@H](Cc2ccc(O)cc2)NC(=O)[C@H](Cc2c[nH]c3ncccc23)NC(=O)[C@H](c2ccccc2)NC(=O)[C@H](CCCCN)N(C)C(=O)[C@H](Cc2c[nH]cn2)NC(=O)[C@H](C)NC(=O)[C@H](C(C)(C)C)NC(=O)[C@H](Cc2ccc(O)cc2)NC1=O` (relative stereo) [Compound R4125, ACE-NVA-CYS*-TYR-TBG-ALA-HIS-NMK-PHG-7AW-TYR-MFF-SAR-CYS*-NH2], for which the half-inhibitory concentration (IC50) came out at 110 nM.

Turning to `CCC[C@H](NC(C)=O)C(=O)N[C@H]1CSCc2cccc(c2)CSC[C@@H](C(N)=O)NC(=O)[C@H](C)N(C)C(=O)[C@H](Cc2ccc(F)cc2)N(C)C(=O)[C@H](Cc2ccc(O)cc2)NC(=O)[C@H](Cc2c[nH]c3ncccc23)NC(=O)[C@@H](c2ccccc2)NC(=O)[C@H](C)N(C)C(=O)[C@H](Cc2c[nH]cn2)NC(=O)[C@H](CCCCN)NC(=O)[C@H](C(C)(C)C)NC(=O)[C@H](Cc2ccc(O)cc2)NC1=O` (relative stereo) [Compound R4121, ACE-NVA-CYS*-TYR-TBG-LYS-HIS-NMA-DPHG-7AW-TYR-MFF-NMA-CYS*-NH2], the half-inhibitory concentration (IC50) came to 73 nM.

With `C=CC(=O)NCCC[C@@H]1NC(=O)[C@H](C)NC(=O)[C@H](C(C)(C)C)NC(=O)[C@H](Cc2ccc(O)cc2)NC(=O)[C@@H](NC(=O)[C@H](CCC)NC(C)=O)CSCc2cccc(c2)CSC[C@@H](C(N)=O)NC(=O)CN(C)C(=O)[C@H](Cc2ccc(F)cc2)N(C)C(=O)[C@H](Cc2ccc(O)cc2)NC(=O)[C@H](Cc2c[nH]c3ncccc23)NC(=O)[C@H](c2ccccc2)NC(=O)[C@H](C)N(C)C1=O` (relative stereo) [Compound R4122, ACE-NVA-CYS*-TYR-TBG-ALA-ORAC-NMA-PHG-7AW-TYR-MFF-SAR-CYS*-NH2], the 50% inhibitory concentration (IC50) amounted to 77.1 nM.

For `CCC[C@H](NC(C)=O)C(=O)N[C@H]1CSCc2cccc(c2)CSC[C@@H](C(N)=O)NC(=O)CN(C)C(=O)[C@H](Cc2ccc(F)cc2)N(C)C(=O)[C@H](Cc2ccc(O)cc2)NC(=O)[C@H](Cc2c[nH]c3ncccc23)NC(=O)[C@H](c2ccccc2)NC(=O)[C@H](C)N(C)C(=O)[C@H](Cc2c[nH]cn2)NC(=O)[C@H](CCCCN)NC(=O)[C@H](C(C)(C)C)NC(=O)[C@H](Cc2ccc(O)cc2)N(C)C1=O` (relative stereo) [Compound R4117, ACE-NVA-CYS*-NMY-TBG-LYS-HIS-NMA-PHG-7AW-TYR-MFF-SAR-CYS*-NH2], the 50% inhibitory concentration (IC50) amounted to 48.3 nM.

Turning to `CCC[C@H](NC(C)=O)C(=O)N[C@H]1CSCc2cccc(c2)CSC[C@@H](C(=O)O)NC(=O)CN(C)C(=O)[C@H](Cc2ccc(F)cc2)N(C)C(=O)[C@H](Cc2ccc(O)cc2)NC(=O)[C@H](Cc2c[nH]c3ncccc23)NC(=O)[C@H](c2ccccc2)NC(=O)[C@H](C)N(C)C(=O)[C@H](Cc2c[nH]cn2)NC(=O)[C@H](CCCCN)NC(=O)[C@H](C(C)(C)C)NC(=O)[C@H](Cc2ccc(O)cc2)NC1=O` (relative stereo) [Compound R4108, ACE-NVA-CYS*-TYR-TBG-LYS-HIS-NMA-PHG-7AW-TYR-MFF-SAR-CYS*], the IC50 came to 9.45 nM.

Usually IC50 stands for the concentration at which inhibition is half-maximal.
